Measured values from PMC11022729 (Advanced Science, 2024).

Columns and labels:
mice [1] = assay: Observation of mouse behavior / signs of toxicity after systemic administration; assay type: in vivo
Description: To prepare for in vivo studies, we investigated the pharmacokinetic properties of compound 6. […] For comparison, we determined the plasma and brain loxapine levels. […] Collectively, the pharmacological and pharmacokinetic profiles of compound 6 make it an excellent molecule for in vivo pharmacodynamic studies.
With regard to the safety profile, it should be considered that Slack is expressed in various neuronal populations in the CNS, and gain‐of‐function mutations of KCNT1 have been associated with epileptic encephalopathies in humans.^[ [46] ^] Limited information exists concerning the incidence of seizures during loxapine treatment. […] However, the epileptogenic potential of brain‐penetrant Slack activators such as compound 6 should be carefully assessed in the future.

mice [2] = assay: Histamine-induced itch behavior; assay type: in vivo, mouse; conditions: i.p.
Description: Chloroquine‐induced scratching in mice is driven by MrgprA3 activation in the NP2 population of sensory neurons.^[ [10], [29] ^] To further explore the antipruritic efficacy of compound 6 in histamine‐independent itch, we assessed the behavioral response after s.c. injection of the peptide Ser‐Leu‐Ile‐Gly‐Arg‐Leu (SLIGRL) that evokes scratching by activation of MrgprC11,^[ [30] ^] which is expressed in the NP2 and NP3 population.^[ [10] ^] […] Moreover, compound 6 ameliorated histamine‐independent itch evoked by s.c. injection of β‐alanine that activates MrgprD^[ [31] ^] in the NP1 population of sensory neurons^[ [10] ^] (Figure 3F). In contrast, scratching induced by subcutaneous histamine was not affected by compound 6 (Figure 3G). The lack of an effect on histamine‐evoked scratching was supported by the low affinity of compound 6 for histamine H1 receptors, which was determined using a [^3H]‐pyrilamine competition binding assay in vitro (Table S3, Supporting Information). […] We also investigated the efficacy of compound 6 after peroral (p.o.) delivery.
Three to four days before the day of the experiment, the fur on the dorsolateral aspect of the neck was shaved under brief isoflurane anesthesia. […] Number of scratching bouts directed toward the nape of the neck was assessed over 30 min by videotaping. […]

Compound: O=C(O)COCCN1CCN(C2=Nc3ccccc3Oc3ccc(Cl)cc32)CC1 [Compound 6]
- impairment of mouse behavior (mice [1]; 10 mg kg−1 i.p.): No obvious impairment of mouse behavior
- overt signs of seizures (mice [1]; systemic administration, doses up to 30 mg kg−1): did not observe any overt signs of seizures
- scratching induced by subcutaneous histamine (mice [2]): not affected
